According to patent US20100261765A1, “MINERALOCORTICOID RECEPTOR MODULATORS” (priority 2007, published 2010):
Like-named read-outs stand apart in the source and are kept apart here.

Experiments:
Cav1.2 = target: T1, Cav1.2 (Homo sapiens, UniProt Q13936); experiment: Calcium channel block, FLIPR TETRA fluorescence assay in HEK293 cells expressing L-type calcium channels; assay type: cell-based; conditions: pH 7.2, 25 mM potassium; for inhibition at 30 min, 0.3 μM: 0.3 μM compound, read-out: FLIPRIETRA Cav1.2 % Inhibition 0.3 μM; for inhibition at 30 min, 1 μM: 1 μm compound, read-out: FLIPRIETRA Cav1.2 % Inhibition 1 μm; for inhibition at 30 min, 3 μM: 3 μm compound, read-out: FLIPRIETRA Cav1.2 % Inhibition 3 μm; for inhibition at 30 min, 10 μM: 10 μm compound, read-out: FLIPRIETRA Cav1.2 % Inhibition 10 μm; for inhibition at 30 min, 30 μM: 30 μm compound, read-out: FLIPRIETRA Cav1.2 % Inhibition 30 μm
T1 construct: expressed in transfected cells; host or cells: HEK293 cell line (Xia, et al., 2004) also expressing Kir2.3
T1 sequence (Q13936 whole entry): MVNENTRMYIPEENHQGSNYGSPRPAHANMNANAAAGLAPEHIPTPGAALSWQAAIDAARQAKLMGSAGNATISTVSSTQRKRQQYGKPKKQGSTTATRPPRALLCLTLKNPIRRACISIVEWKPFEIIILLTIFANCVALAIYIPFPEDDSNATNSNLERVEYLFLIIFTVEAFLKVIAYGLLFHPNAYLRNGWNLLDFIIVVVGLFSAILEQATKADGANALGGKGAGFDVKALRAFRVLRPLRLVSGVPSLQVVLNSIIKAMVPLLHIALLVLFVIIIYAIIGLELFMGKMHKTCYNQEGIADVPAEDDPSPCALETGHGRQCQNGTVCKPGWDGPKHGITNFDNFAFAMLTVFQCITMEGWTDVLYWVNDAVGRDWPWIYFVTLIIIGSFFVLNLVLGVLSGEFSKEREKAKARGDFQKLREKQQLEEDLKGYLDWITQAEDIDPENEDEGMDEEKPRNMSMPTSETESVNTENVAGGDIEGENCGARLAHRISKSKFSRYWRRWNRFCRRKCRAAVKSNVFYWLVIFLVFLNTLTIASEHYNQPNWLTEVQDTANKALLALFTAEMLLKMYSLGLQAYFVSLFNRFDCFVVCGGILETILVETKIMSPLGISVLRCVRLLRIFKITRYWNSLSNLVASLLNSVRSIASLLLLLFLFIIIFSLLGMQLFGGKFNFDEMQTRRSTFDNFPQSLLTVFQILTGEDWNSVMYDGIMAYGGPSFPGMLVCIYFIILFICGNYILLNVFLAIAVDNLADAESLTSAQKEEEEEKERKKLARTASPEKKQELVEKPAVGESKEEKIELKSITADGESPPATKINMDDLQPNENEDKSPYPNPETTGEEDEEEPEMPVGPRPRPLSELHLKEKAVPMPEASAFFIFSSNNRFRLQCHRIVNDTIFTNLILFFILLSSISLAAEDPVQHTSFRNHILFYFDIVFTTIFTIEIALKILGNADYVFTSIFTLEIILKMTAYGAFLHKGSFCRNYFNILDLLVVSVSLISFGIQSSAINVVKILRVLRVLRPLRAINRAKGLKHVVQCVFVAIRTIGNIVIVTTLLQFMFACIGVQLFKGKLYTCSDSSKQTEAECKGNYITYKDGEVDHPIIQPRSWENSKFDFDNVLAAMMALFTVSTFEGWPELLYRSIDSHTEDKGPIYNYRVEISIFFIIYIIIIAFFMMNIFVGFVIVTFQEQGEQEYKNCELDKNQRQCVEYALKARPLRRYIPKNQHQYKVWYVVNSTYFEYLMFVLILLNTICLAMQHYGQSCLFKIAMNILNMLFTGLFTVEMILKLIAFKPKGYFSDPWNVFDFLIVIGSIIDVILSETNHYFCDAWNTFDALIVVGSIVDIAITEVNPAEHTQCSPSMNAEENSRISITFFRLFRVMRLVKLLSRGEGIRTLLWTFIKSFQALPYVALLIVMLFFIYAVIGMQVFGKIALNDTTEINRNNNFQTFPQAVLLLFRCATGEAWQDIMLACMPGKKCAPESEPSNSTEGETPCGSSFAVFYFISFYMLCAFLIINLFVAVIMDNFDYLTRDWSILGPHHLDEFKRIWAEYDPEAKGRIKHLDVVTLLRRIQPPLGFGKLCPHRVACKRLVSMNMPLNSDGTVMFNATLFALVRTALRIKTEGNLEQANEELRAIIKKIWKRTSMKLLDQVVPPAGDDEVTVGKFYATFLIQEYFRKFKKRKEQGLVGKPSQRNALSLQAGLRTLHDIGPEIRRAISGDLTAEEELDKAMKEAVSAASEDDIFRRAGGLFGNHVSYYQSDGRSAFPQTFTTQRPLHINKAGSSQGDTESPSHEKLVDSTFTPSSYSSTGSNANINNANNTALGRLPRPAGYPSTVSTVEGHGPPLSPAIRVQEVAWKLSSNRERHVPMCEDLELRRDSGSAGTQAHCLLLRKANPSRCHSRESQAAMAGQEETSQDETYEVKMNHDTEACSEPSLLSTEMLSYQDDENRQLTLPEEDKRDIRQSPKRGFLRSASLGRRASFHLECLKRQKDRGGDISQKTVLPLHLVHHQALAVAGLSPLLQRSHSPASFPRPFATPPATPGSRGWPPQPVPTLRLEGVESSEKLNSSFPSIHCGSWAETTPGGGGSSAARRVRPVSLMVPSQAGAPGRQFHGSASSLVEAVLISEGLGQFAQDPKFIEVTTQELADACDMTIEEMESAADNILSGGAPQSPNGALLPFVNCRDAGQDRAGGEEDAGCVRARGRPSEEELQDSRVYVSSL
T1 sequence (P54289 25-946 partner limits assumed): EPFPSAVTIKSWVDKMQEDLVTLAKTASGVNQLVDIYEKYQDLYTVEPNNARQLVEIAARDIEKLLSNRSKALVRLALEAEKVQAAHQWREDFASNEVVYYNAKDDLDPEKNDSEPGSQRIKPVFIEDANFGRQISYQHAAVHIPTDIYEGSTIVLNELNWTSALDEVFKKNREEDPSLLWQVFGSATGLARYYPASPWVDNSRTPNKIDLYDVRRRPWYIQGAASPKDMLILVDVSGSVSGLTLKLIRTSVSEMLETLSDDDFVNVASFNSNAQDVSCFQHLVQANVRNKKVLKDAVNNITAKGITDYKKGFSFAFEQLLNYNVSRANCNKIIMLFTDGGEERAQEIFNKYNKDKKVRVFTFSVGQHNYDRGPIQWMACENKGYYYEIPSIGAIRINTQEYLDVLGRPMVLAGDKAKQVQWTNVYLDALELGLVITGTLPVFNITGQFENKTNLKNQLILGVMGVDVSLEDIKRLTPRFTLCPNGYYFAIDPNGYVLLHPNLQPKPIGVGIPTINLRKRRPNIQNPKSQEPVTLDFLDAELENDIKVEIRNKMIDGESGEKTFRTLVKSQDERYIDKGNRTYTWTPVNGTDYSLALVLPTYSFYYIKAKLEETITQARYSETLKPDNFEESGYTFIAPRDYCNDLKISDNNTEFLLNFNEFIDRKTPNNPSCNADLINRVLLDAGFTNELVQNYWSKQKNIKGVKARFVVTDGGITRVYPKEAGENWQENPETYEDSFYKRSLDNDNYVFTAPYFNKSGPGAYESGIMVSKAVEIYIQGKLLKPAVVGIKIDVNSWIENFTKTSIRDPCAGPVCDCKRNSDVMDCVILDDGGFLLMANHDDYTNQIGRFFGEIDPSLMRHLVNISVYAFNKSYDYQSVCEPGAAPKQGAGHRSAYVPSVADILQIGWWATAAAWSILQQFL
T1 sequence (P54289 947-1103 partner limits assumed): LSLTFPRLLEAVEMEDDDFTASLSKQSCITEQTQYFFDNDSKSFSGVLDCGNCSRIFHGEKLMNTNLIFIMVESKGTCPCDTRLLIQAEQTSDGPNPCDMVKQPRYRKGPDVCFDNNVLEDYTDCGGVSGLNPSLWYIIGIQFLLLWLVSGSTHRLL
T1 sequence (Q08289 whole entry partner): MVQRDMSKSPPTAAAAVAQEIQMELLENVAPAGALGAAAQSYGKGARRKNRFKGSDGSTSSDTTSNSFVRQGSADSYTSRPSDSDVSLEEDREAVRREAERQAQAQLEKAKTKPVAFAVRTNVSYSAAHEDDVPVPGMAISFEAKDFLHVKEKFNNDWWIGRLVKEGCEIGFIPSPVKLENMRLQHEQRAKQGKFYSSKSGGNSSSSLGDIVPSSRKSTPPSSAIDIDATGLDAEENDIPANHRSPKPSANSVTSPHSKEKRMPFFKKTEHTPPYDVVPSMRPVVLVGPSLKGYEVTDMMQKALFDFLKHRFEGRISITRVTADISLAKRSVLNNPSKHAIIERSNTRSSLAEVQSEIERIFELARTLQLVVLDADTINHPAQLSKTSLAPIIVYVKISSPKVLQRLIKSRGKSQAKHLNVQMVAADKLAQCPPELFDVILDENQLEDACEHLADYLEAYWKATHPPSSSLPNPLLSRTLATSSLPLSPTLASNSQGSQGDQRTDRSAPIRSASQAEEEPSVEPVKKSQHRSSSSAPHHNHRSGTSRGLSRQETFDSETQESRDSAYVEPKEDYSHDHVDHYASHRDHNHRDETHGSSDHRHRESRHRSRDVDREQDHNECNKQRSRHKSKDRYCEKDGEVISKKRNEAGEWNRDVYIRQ
Method: Measurement of Calcium Channel Block
A high-throughput fluorescence assay for state-dependent block of L-type channels was established as a counterscreen for blockers of N-type calcium channels. […] This allows the cell membrane potential to be preset during compound incubation, which can be used to assay state-dependent channel block. Running the assay in the presence of high potassium (25 mM) sets the membrane potential to a value (−35 mV) at which approximately half of the calcium channels are inactivated and some are open. This condition favors block by many L-type calcium channel blockers that lower blood pressure, including dihydropyridines, phenylalkylamines and benzothiazepines.
Initially, the compounds were incubated in 0.005 μM calcium and 25 mM potassium for 30 minutes. Calcium influx was triggered by buffer addition that raises the calcium concentration to 2 mM while maintaining the potassium concentration at 25 mM. Changes in intracellular calcium were then monitored using a calcium-sensitive fluorescent dye (fluo-4) and a FLIPR^TETRA plate reader.
The following experimental protocol was used:
1. Cells were seeded in a Poly-D-Lysine Coated 384-well plate (50 μl/well) and incubated overnight at 37° C. under 10% CO2;
4. Cells were then incubated in the dark at 25° C. for 30 minutes;
5. […] 25 mM KCl, 0.005 mM CaCl2, 1.7 mM MgCl2, 10 HEPES, pH=7.2;
6. 0.025 ml of 25 mM K PPB was then added, with or without the presence of a test compound;
7. Cells incubated in the dark at 25° C. for 30 min
8. Cell plates are then read on the FLIPR^TETRA instrument, Excitation=480 nm, Emission=535 nm;

[1] = target: T2, recombinant rhesus mineralocorticoid receptor (Macaca mulatta, UniProt A0A5F8ATS5); experiment: Mineralocorticoid receptor binding affinity, [3H]-aldosterone filter binding assay
T2 construct: made in house; host or cells: insect cells infected with recombinant baculovirus; clarified lysate used
T2 sequence (A0A5F8ATS5 1-984): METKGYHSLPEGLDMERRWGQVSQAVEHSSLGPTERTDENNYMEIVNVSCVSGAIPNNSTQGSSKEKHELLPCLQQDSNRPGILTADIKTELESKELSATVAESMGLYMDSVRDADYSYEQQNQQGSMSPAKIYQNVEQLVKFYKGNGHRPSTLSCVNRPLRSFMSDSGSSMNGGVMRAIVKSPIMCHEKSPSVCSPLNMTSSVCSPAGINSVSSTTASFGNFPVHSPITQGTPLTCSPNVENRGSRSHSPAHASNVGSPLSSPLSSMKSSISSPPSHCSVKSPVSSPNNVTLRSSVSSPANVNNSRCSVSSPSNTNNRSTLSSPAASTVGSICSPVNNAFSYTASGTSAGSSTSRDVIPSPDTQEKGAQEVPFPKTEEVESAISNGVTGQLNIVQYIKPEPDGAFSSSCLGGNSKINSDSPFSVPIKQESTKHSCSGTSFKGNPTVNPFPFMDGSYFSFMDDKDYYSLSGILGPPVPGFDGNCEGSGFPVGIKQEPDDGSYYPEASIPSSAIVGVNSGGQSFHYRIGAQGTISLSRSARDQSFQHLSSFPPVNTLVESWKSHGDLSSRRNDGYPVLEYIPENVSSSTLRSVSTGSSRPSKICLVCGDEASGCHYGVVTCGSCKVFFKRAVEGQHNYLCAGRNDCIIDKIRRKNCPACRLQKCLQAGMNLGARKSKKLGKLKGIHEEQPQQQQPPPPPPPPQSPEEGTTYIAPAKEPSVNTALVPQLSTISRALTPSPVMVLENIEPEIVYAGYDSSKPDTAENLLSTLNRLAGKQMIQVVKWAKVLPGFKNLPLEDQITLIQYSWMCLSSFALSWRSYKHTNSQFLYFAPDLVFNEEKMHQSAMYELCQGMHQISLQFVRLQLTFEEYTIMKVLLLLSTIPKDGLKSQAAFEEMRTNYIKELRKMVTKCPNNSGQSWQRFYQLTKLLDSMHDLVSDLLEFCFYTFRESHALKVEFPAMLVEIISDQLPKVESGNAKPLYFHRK
Method: Measurement of Mineralocorticoid Receptor Binding Affinity
The binding affinity of compounds for the mineralocorticoid receptor was determined by measuring their ability to prevent binding of radiolabeled aldosterone to recombinant rhesus mineralocorticoid receptor in a traditional filter binding assay protocol.
Rhesus mineralocorticoid receptor cDNA was cloned from a cDNA library using and used to prepare a recombinant baculovirus encoding the rhesus mineralocorticoid receptor coding sequence by standard molecular biological and cell biological methods. […] Cells were collected and lysed. The lysates were clarified by centrifugation and stored at −80 C until use in the radioligand binding assay.
[^3H]-Aldosterone (1 mCi/ml, 70-100 Ci/mmol) was purchased from Perkin Elmer (NET419). Test compounds were dissolved in DMSO and diluted in DMSO to 50 times the desired final concentrations for 3-fold serial dilution dose response curves. […] The insect cell lysate containing rhesus mineralocorticoid receptor was thawed and diluted to 0.7 mg protein/mL. Assay were started by combining 20 μL of test compound solution, 920 μL of diluted insect cell lysate, and 60 μL of [^3H]-aldosterone working solution in 2-mL 96-well polypropylene square well plates (USA Scientific) at 20° C. The mixture was incubated for 3 hr with continuous agitation on a platform shaker. […] The filter plate was washed 3 times with 0.5 mL of 50 mM Tris-HCl, pH 7.4 and then dried overnight at 37° C. in a vacuum oven. […] Non-specific radioligand binding was determined by adding non-radiolabeled aldosterone (0.5 mM in DMSO) to the assay mixture to a final concentration of 10 μM in place of test compound. IC50 and Ki values were determined using a four parameter logistic fit using a customized assay data analyzer software package.

[2] = system: patients suffering from advanced CHF; conditions: in combination with standard CHF therapy; cited from earlier work
[3] = average of Rep#1 and Rep#2, read-out: MRBIND Ki (nM) Average
[4] = replicate 1, read-out: MRBIND Ki (nM) Rep#1
[5] = replicate 2, read-out: MRBIND Ki (nM) Rep#2

| Ki [1, 3] [nM] | Ki [1, 4] [nM] | Ki [1, 5] [nM] | Structure (SMILES) | inhibition at 30 min, 0.3 μM (Cav1.2) [%] | inhibition at 30 min, 1 μM (Cav1.2) [%] | inhibition at 30 min, 3 μM (Cav1.2) [%] | inhibition at 30 min, 10 μM (Cav1.2) [%] | inhibition at 30 min, 30 μM (Cav1.2) [%] | reduction of cardiac related mortality [2] [%] | reduction of frequency of hospitalization [2] [%] |
| --- | --- | --- | --- | --- | --- | --- | --- | --- | --- | --- |
| 462 | 472 | 453 | C=CCOC(=O)C1=C(C)NC(C)=C(C(=O)OCC=C)C1c1cccc([N+](=O)[O-])c1 [diallyl 2,6-dimethyl-4-(3-nitrophenyl)-1,4-dihydropyridine-3,5-dicarboxylate] | 81 | 83 | 82 | 81 |  |  |  |
| 203 | 83 | 324 | COC(=O)C1=C(C)NC(C)=C(C(=O)OC)C1c1ccc(Cl)c(Cl)c1 [dimethyl 4-(3,4-dichlorophenyl)-2,6-dimethyl-1,4-dihydropyridine-3,5-dicarboxylate] | 34 | 59 | 77 | 87 | 89 |  |  |
| 219 | 184 | 254 | CCOC(=O)C1=C(C)NC(C)=C(C(=O)OCC)C1c1ccc([N+](=O)[O-])cc1 [diethyl 2,6-dimethyl-4-(4-nitrophenyl)-1,4-dihydropyridine-3,5-dicarboxylate] | 25 | 43 | 59 | 76 |  |  |  |
| 114 | 77 | 152 | CCOC(=O)C1=C(C)NC(C)=C(C(=O)OC(C)C)C1c1ccc([N+](=O)[O-])cc1 (centres unmarked) [ethyl isopropyl 2,6-dimethyl-4-(4-nitrophenyl)-1,4-dihydropyridine-3,5-dicarboxylate] | 28 | 49 | 63 | 73 | 86 |  |  |
| 489 | 570 | 408 | C=Cc1ccccc1C1C(C(=O)OC)=C(C)NC(C)=C1C(=O)OC [dimethyl 2,6-dimethyl-4-(2-vinylphenyl)-1,4-dihydropyridine-3,5-dicarboxylate] | 74 | 74 | 78 | 87 |  |  |  |
| 375 | 382 | 368 | COC(=O)C1=C(C)NC(C)=C(C(=O)OC)C1c1cccc(Cl)c1Cl [dimethyl 4-(2,3-dichlorophenyl)-2,6-dimethyl-1,4-dihydropyridine-3,5-dicarboxylate] | 73 | 75 | 77 | 78 | 84 |  |  |

Second part, the molecule before the results:

| Structure (SMILES) | Ki [1, 3] [nM] | Ki [1, 4] [nM] | Ki [1, 5] [nM] | inhibition at 30 min, 0.3 μM (Cav1.2) [%] | inhibition at 30 min, 1 μM (Cav1.2) [%] | inhibition at 30 min, 3 μM (Cav1.2) [%] | inhibition at 30 min, 10 μM (Cav1.2) [%] | inhibition at 30 min, 30 μM (Cav1.2) [%] | reduction of cardiac related mortality [2] [%] | reduction of frequency of hospitalization [2] [%] |
| --- | --- | --- | --- | --- | --- | --- | --- | --- | --- | --- |
| CCCSC1=C(C#N)C(c2ccccc2Cl)C(C(=O)Nc2ccccc2OC)=C(C)N1 (centres unmarked) [4-(2-chlorophenyl)-5-cyano-N-(2-methoxyphenyl)-2-methyl-6-(propylthio)-1,4-dihydropyridine-3-carboxamide] | 14.9 | 11.6 | 18.2 | 31 | 69 | 90 | 96 | 102 |  |  |
| CCSC1=C(C#N)C(c2ccccc2Cl)C(C(=O)Nc2ccccc2OC)=C(C)N1 (centres unmarked) [4-(2-chlorophenyl)-5-cyano-6-(ethylthio)-N-(2-methoxyphenyl)-2-methyl-1,4-dihydropyridine-3-carboxamide] | 53 | 90 | 16 | 41 | 83 | 92 | 98 | 104 |  |  |
| CCOc1ccccc1C1C(C#N)=C(SC)NC(C)=C1C(=O)Nc1ccccc1 (centres unmarked) [5-cyano-4-(2-ethoxyphenyl)-2-methyl-6-(methylthio)-N-phenyl-1,4-dihydropyridine-3-carboxamide] | 1390 | 1140 | 1650 | 4 | 26 | 55 | 82 |  |  |  |
| COc1ccccc1NC(=O)C1=C(C)NC(SC)=C(C#N)C1c1ccccc1Cl (centres unmarked) [4-(2-chlorophenyl)-5-cyano-N-(2-methoxyphenyl)-2-methyl-6-(methylthio)-1,4-dihydropyridine-3-carboxamide] | 193 | 250 | 137 | -3 | 14 | 35 | 74 |  |  |  |
| COC(=O)C1=C(C)NC(C)=C(C(=O)OC)C1c1cccc2ccccc12 [Dimethyl 2,6-dimethyl-4-(1-naphthyl)-1,4-dihydropyridine-3,5-dicarboxylate] | 61 | 69 | 53 | 80 | 88 | 94 | 100 | 104 |  |  |
| CC(=O)S[C@@H]1CC2=CC(=O)CC[C@]2(C)[C@H]2CC[C@@]3(C)[C@@H](CC[C@@]34CCC(=O)O4)[C@H]12 [spironolactone] |  |  |  |  |  |  |  |  | 30 | 33 |
| CCCC1=C(C(=O)OCC)C(c2ccccc2Cl)C(C#N)=C(SC)N1 (centres unmarked) [ethyl 4-(2-chlorophenyl)-5-cyano-6-(methylthio)-2-propyl-1,4-dihydropyridine-3-carboxylate] | 37.3 | 23.6 | 51 | 53 | 73 | 74 | 80 |  |  |  |
